# Laboratory results published in ChEMBL document CHEMBL1201862, “PubChem BioAssay data set” (2004).
# Active and inactive are the calls of the source.
# Assays:
# Fatty acid synthase = Fatty acid synthase (Homo sapiens, UniProt P49327); assay: inhibition of human FAS-TE enzyme activity – biochemical, kinetic fluorescence intensity, dose response (AID 624326); type: functional;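 further: rate of fluorescence rise from hydrolysis of a fluorogenic O-methyl fluorescein ester substrate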
# [1] = target: Voltage-dependent T-type calcium channel subunit alpha-1H (Homo sapiens, UniProt O95180); type: functional;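 further: channel activity triggered by adding a high calcium stimulation buffer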
# Chain of Voltage-dependent T-type calcium channel subunit alpha-1H (O95180 whole entry): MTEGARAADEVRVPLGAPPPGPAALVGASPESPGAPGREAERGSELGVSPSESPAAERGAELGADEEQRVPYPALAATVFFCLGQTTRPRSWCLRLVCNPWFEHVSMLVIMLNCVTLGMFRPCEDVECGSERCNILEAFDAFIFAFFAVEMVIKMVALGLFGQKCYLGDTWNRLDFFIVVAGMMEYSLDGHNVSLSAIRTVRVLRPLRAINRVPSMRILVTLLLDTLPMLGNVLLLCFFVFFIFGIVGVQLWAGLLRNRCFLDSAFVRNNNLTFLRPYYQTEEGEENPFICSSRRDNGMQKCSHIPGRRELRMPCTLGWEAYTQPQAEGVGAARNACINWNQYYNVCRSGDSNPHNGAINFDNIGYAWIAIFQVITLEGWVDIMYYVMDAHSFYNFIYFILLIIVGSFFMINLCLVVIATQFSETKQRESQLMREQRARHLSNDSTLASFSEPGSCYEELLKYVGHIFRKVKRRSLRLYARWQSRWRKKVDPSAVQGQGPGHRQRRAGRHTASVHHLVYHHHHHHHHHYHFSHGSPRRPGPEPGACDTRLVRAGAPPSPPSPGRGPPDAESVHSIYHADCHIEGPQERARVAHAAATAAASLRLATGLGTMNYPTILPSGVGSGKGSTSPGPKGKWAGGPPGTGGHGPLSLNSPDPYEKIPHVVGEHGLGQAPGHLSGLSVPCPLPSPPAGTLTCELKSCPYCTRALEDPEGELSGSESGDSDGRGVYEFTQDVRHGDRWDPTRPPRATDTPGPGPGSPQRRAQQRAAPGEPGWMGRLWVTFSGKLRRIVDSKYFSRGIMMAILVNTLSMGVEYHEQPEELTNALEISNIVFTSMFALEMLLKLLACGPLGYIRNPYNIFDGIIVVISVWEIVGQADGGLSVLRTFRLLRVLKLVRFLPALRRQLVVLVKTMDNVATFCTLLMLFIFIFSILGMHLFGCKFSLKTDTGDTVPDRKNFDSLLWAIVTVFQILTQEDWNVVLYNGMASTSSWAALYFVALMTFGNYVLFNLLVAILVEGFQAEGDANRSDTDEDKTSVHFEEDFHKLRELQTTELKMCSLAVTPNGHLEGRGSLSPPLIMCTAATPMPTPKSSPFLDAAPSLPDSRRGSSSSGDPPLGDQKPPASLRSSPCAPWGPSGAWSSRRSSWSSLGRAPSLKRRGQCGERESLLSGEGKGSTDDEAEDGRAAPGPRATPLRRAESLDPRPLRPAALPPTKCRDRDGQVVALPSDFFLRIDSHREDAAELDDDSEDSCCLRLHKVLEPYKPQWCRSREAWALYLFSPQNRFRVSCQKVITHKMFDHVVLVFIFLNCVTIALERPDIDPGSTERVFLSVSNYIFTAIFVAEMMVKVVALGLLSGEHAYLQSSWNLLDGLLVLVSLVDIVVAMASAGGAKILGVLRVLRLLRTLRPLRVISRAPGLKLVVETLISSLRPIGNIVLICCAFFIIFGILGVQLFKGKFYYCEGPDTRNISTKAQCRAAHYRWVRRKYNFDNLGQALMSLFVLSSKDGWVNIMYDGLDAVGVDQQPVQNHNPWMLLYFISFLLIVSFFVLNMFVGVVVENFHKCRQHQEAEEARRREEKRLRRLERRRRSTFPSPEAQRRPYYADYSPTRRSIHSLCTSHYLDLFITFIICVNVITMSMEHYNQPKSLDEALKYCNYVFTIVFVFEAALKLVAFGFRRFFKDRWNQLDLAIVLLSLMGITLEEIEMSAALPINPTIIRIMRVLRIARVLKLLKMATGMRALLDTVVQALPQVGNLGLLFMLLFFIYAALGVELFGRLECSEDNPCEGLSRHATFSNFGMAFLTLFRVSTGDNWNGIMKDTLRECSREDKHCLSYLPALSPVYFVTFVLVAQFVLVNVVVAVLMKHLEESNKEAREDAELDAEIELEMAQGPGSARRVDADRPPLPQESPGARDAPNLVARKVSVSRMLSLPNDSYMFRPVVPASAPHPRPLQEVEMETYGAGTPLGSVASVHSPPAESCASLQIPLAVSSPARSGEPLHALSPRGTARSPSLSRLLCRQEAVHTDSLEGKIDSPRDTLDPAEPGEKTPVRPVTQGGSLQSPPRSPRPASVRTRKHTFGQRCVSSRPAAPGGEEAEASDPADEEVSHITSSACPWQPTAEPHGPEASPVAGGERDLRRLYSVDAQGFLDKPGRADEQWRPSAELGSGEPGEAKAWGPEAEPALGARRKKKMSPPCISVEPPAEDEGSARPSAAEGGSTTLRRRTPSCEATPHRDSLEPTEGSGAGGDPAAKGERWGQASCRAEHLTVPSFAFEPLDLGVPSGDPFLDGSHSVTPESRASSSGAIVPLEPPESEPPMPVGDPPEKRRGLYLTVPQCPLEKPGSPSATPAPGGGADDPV
# Genome polyprotein = Genome polyprotein (dengue virus type 2, UniProt P29990); assay: flavivirus cap methylation enzyme inhibition – biochemical, confirmation dose response, primary screen (AID 588689); type: functional
# Chain of Genome polyprotein (P29990 2492-3391 limits assumed): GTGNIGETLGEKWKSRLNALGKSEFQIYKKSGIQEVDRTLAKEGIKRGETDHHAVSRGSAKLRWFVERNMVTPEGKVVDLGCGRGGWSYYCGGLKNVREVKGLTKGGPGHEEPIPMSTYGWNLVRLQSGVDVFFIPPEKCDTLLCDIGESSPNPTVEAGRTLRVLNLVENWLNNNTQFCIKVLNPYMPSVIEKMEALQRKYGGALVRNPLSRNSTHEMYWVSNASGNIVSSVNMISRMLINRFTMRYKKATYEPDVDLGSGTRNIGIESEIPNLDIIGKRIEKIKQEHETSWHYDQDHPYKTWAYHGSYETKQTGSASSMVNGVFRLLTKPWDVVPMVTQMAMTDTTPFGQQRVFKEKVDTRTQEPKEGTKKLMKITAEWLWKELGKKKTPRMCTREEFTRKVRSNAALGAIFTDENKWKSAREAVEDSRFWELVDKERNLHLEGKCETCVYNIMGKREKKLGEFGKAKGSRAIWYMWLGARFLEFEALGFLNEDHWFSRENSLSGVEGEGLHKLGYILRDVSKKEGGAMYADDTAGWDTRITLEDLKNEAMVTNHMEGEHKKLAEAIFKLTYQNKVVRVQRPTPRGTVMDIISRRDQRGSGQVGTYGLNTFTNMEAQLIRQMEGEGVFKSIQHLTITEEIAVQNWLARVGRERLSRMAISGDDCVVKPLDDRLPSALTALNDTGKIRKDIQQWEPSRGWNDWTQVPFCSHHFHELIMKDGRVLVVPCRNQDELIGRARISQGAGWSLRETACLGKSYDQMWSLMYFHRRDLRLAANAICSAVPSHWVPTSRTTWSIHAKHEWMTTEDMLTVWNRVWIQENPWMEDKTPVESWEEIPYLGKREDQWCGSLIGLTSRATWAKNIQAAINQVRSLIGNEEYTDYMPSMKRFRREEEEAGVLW
# Leucine aminopeptidase = target: T1, Leucine aminopeptidase (Plasmodium falciparum 3D7, UniProt Q8IL11); assay: P. falciparum M17LAP inhibitors, primary screen, biochemical, fluorogenic H-Leu-NHMec substrate, 1536-well (AID 1619); type: functional
# T1 sequence (Q8IL11 whole entry): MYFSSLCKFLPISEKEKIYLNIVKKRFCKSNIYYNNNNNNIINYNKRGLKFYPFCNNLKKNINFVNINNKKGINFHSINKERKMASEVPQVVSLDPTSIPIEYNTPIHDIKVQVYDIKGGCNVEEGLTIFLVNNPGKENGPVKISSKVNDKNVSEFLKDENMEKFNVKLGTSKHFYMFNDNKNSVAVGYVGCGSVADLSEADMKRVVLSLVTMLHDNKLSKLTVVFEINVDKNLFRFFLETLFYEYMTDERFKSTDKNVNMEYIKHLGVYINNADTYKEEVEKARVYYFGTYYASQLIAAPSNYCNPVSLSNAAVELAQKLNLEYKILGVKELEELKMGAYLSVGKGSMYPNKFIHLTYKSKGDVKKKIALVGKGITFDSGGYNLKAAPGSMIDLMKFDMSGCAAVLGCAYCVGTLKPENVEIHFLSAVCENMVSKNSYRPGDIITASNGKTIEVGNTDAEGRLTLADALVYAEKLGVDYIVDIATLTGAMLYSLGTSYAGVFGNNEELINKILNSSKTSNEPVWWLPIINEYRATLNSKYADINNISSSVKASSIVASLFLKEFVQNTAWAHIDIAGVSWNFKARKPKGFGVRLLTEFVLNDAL
# Cytochrome P450 2C9 = Cytochrome P450 2C9 (Homo sapiens, UniProt P11712)
# Chain of Cytochrome P450 2C9 (P11712 whole entry): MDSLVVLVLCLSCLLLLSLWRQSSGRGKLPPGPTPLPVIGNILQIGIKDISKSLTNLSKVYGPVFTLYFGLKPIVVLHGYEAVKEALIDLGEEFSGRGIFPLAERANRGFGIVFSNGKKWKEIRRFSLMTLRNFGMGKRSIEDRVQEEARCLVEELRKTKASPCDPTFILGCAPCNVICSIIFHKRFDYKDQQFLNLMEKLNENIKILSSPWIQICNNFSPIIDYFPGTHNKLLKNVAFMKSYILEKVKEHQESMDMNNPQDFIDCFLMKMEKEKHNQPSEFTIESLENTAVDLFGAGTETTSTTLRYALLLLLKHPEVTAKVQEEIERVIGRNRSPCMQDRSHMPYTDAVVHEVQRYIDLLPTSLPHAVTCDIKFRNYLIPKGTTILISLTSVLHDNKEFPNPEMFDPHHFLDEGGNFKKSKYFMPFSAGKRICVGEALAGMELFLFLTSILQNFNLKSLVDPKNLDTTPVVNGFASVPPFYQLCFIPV
# Cytochrome P450 2D6 = Cytochrome P450 2D6 (Homo sapiens, UniProt P10635);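 further: CYP2D6 member of a cytochrome P450 panel assay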
# Chain of Cytochrome P450 2D6 (P10635 whole entry): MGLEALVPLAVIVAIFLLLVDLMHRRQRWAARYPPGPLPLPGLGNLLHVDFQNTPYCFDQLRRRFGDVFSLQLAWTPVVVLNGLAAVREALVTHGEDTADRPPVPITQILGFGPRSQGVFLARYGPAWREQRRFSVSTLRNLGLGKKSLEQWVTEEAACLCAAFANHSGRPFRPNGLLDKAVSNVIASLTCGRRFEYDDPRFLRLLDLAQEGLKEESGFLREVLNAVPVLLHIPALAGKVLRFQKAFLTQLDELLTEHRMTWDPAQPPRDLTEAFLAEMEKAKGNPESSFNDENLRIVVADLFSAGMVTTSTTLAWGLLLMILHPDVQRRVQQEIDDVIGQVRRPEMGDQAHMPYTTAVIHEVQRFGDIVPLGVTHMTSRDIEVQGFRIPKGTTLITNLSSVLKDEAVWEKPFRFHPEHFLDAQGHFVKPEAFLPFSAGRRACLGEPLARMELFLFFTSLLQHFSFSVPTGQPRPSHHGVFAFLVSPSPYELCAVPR
# [2] = target: Induced myeloid leukemia cell differentiation protein Mcl-1 (Homo sapiens, UniProt Q07820); type: functional
# Chain of Induced myeloid leukemia cell differentiation protein Mcl-1 (Q07820 whole entry): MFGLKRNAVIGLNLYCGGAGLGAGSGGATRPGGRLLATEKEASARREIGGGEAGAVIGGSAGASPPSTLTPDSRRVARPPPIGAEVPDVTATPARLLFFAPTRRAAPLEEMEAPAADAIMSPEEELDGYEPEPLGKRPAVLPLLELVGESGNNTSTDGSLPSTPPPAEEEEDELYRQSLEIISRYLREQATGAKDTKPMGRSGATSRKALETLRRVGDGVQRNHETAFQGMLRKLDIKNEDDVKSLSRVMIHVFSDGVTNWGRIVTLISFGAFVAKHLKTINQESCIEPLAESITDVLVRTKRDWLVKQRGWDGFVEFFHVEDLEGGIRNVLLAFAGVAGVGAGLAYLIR
# [3] = Luminescence Cell-Based Dose Retest to Confirm Inhibitors of Cancer Stem Cells. [Related pubchem assays (depositor defined):AID2717, AID2721]; type: functional; details: Homo sapiens
# [4] = NIH3T3 cell viability loss – ATP luminescence, mouse fibroblasts, counter-screen, dose response (AID 2010); type: functional, cell-based;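 further: cells exposed to compound for about 90 hours before reading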
# Cytochrome P450 1A2 = target: T2, Cytochrome P450 1A2 (Homo sapiens, UniProt P05177);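 further: PubChem cytochrome P450 panel assay, CYP1A2 panel member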
# T2 sequence (P05177 whole entry): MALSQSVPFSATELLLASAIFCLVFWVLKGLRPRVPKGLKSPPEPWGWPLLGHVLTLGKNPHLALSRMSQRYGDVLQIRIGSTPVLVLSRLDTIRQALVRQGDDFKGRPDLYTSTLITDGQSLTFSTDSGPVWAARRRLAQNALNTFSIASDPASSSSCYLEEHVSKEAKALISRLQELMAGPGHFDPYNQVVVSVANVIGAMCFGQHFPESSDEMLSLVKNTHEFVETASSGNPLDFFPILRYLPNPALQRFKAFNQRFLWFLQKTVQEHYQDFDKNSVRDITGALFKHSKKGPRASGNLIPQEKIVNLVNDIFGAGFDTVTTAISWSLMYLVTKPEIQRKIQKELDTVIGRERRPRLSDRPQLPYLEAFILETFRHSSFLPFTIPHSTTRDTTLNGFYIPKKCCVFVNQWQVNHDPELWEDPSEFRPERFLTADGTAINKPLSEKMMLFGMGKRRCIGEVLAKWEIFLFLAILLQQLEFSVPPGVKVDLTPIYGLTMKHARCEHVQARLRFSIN
# [5] = blockers of bursicon-stimulated LGR2 cAMP reporter – cell-based, HEK293, CRE-luciferase reporter, cherry pick, set 2, dose response (AID 743343); type: functional;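 further: transfected cells were stimulated with diluted bursicon conditioned medium after compound addition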
# [6] = Trypanosoma cruzi growth suppression in host cells – NIH3T3 host cells, beta-gal luminescence, confirmation (AID 2044); type: functional, cell-based;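 further: intracellular parasites grown in NIH/3T3 mouse fibroblasts as host cells; luminescent beta-galactosidase reporter signal from transgenic T. cruzi replicating inside host cells; inhibitors lower the luminescence signal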
# [7] = blockade of melanocortin 4 receptor signaling – cell-based, plate reader, cherry pick, counter-screen for LGR2 antagonist project, dose response (AID 743444); type: functional;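 further: transfected HEK 293 cells stimulated with alpha-MSH peptide; potency of inhibitors of the alpha-MSH evoked signal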
# [8] = HPDE-C7 pancreatic duct cell viability loss – fluorescence, HTS (AID 430); type: functional, cell-based; details: Homo sapiens
# [9] = viability loss of HPDE-C7K cells – cell-based, fluorescence, HTS, primary screen (AID 431); type: functional; details: Homo sapiens
# [10] = viability of PTEN-deleted HCT116 cells – cell-based, HCT116 PTEN knockout, dose response (AID 1047); type: functional;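 further: HCT116 colon tumor cells with PTEN knocked out; cells exposed to compound for 60 hours before readout; potency for loss of cell viability measured by luminescence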
# [11] = viability of HCT116 lacking mutant beta-catenin – cell-based, human colon tumor, dose response (AID 1045); type: functional;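 further: HCT116 colon tumor cells with beta catenin knocked out; cells exposed to compound for 60 hours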
# [12] = target: T3, Endoribonuclease toxin MazF (Escherichia coli K-12, UniProt P0AE70); assay: activation of MazEF endoribonuclease cleavage – biochemical, fluorescence, single-stranded RNA substrate, uHTS hits, dose response (AID 588481); type: functional
# T3 sequence (P0AE70 whole entry): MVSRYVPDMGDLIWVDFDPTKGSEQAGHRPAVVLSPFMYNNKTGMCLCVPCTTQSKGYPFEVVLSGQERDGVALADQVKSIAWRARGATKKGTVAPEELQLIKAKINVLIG
# [13] = target: T4, RNA-binding protein pos-1 (Caenorhabditis elegans, UniProt G5EF15); assay: disruptors of C. elegans POS-1 RNA interaction – biochemical, fluorescence polarization, dose response (AID 1964);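 further: purified POS-1 fused to maltose binding protein made in E. coli; potency of compounds blocking POS-1 binding to fluorescent RNA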
# T4 sequence (G5EF15 whole entry): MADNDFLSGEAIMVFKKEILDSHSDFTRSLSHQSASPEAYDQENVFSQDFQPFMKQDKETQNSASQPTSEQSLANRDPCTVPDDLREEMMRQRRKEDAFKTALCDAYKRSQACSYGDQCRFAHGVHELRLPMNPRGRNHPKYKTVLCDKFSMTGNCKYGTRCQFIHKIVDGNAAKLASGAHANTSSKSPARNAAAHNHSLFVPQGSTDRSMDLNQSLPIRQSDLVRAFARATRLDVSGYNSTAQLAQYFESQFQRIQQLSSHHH
# [14] = target: T5, Zinc finger protein mex-5 (Caenorhabditis elegans, UniProt Q9XUB2); assay: potency of MEX-5 RNA-binding blockers – biochemical, C. elegans, fluorescence polarization, dose response (AID 1960)
# T5 sequence (Q9XUB2 whole entry): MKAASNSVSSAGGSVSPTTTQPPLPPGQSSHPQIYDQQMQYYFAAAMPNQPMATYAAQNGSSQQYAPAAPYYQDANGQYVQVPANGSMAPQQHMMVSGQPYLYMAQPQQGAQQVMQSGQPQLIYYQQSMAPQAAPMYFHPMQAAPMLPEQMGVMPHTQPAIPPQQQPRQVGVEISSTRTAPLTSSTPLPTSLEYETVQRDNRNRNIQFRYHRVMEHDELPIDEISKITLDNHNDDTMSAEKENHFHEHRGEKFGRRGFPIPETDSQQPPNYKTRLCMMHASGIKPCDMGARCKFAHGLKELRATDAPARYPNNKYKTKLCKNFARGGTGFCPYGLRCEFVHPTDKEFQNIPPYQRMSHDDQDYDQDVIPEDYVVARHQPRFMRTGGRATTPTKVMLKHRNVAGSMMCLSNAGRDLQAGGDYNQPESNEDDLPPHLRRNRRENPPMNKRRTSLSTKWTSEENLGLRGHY
# [15] = target: T3, Endoribonuclease toxin MazF; assay: substrate-only fluorescence increase artefacts – biochemical, single-stranded RNase substrate, counter-screen for MazEF activator project, dose response (AID 588502); type: functional
structure (smiles),measurement,setting,value
CC(C)(C)OC(=O)NCCCC[C@H](NC(=O)c1[nH]cnc1C(=O)NC1CCN(C(=O)OC(C)(C)C)CC1)C(=O)OC(C)(C)C,IC50,Fatty acid synthase,1.6 µM (active)
CN(CCOc1ccc(Cl)cc1)c1ccc(S(=O)(=O)N2CCCCC2)cn1,EC50,[1],2.82 µM (active)
Cc1cccc(COCC(Cc2ccccc2)N2CCN(C(=O)c3cc(Cl)cc(Cl)c3)CCC2=O)c1 (centres undefined),EC50,[1],3.04 µM (active)
CC(C)(C)C1CCc2c(sc(NC(=O)C3CC=CCC3C(=O)O)c2C#N)C1 (centres undefined),IC50,Genome polyprotein,39.4 µM (active)
same,IC50,Leucine aminopeptidase,11 µM (active)
CS(=O)(=O)Nc1cccc(-c2cc(NCc3cccs3)ncn2)c1,AC50,Cytochrome P450 2C9,inconclusive
same,AC50,Cytochrome P450 2D6,20 µM (inconclusive)
CC1CCCCC12NC(=O)N(CC(=O)Nc1sc3c(c1C(N)=O)CCC3)C2=O (centres undefined),IC50,[2],3.5 µM (active)
O=C1c2ccccc2C(Nc2ccc(F)c(Cl)c2)N1Cc1ccco1 (centres undefined),EC50,[1],3.88 µM (active)
CC(C)Oc1ccc(CNC(=O)CC(c2ccccc2)c2cc(Cl)ccc2O)cc1 (centres undefined),AC50,[3],5.73 µM (active)
same,EC50,[4],> 30 µM (not active)
same,AC50,Cytochrome P450 1A2,28.2 µM (inconclusive)
same,AC50,[5],28 µM (active)
same,EC50,[6],2.17 µM (active)
same,AC50,[7],26.7 µM (active)
CCCC1(CCC)C(=O)N=C(NCc2ccccc2)NC1=O,EC50,[8],14.4 µM (active)
same,EC50,[9],13.4 µM (active)
COc1cc(-c2nnc(SCC3(c4ccccc4)OCCO3)o2)cc(OC)c1OC,AC50,Cytochrome P450 2C9,inconclusive
CCn1c(/C=C/c2c(C)[nH]c3ccccc23)nc2ccccc2c1=O,EC50,[10],7.1 µM (active)
same,EC50,[11],5.59 µM (active)
same,EC50,[12],> 99 µM (inactive)
same,EC50,[13],> 300 µM (not active)
same,EC50,[14],> 300 µM (inconclusive)
same,EC50,[15],> 99 µM (inactive)
